Assay results reported in ChEMBL document CHEMBL1152560, “Substituted 2-arylbenzothiazoles as kinase inhibitors: hit-to-lead optimization” (Bioorg Med Chem, 2009).

Assays:
[1] = biological target: Serine/threonine-protein kinase WNK3 (Homo sapiens) (UniProt Q9BYP7); experiment: Residual activity of WNK3 at 10 uM by microplate scintillation counting
[2] = biological target: Eukaryotic translation initiation factor 2-alpha kinase 1 (Homo sapiens) (UniProt Q9BQI3); experiment: Residual activity of HRI at 1 uM by microplate scintillation counting
Sequence of Eukaryotic translation initiation factor 2-alpha kinase 1 (Homo sapiens) (Q9BQI3 whole entry): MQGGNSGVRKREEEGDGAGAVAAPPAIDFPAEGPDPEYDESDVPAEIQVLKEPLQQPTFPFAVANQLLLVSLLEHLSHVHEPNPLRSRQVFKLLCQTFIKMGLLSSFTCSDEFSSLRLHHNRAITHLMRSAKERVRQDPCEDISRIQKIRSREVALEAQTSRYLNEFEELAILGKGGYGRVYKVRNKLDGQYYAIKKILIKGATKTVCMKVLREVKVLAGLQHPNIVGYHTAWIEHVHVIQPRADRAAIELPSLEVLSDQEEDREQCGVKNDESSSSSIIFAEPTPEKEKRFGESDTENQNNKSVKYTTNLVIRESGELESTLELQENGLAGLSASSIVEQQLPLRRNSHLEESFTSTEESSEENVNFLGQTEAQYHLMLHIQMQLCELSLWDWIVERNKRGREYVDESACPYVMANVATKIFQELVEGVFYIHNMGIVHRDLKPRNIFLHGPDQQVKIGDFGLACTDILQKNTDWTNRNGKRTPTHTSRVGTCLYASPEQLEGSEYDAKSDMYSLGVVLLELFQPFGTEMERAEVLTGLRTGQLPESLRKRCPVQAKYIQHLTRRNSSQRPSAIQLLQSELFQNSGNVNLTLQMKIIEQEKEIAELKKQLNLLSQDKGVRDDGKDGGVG

[3] = biological target: T1, NUAK family SNF1-like kinase 1 (Homo sapiens) (UniProt O60285); experiment: Residual activity of ARK5 at 10 uM by microplate scintillation counting
T1 sequence (whole entry): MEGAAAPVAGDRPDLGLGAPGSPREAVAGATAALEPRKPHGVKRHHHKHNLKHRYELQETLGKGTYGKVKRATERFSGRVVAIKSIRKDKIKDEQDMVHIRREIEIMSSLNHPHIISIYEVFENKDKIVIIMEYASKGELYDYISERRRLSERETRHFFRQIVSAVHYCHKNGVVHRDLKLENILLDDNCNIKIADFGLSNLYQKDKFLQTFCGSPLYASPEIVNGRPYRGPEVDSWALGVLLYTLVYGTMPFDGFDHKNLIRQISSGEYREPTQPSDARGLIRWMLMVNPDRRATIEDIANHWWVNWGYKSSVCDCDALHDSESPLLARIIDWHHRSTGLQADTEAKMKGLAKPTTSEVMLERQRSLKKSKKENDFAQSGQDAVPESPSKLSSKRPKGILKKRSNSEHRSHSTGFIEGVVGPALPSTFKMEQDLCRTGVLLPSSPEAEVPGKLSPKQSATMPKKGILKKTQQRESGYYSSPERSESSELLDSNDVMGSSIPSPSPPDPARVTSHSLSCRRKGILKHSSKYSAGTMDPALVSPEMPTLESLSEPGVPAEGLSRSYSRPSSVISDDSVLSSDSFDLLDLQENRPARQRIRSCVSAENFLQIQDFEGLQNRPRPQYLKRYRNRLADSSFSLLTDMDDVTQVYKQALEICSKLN

[4] = biological target: CDK4/Cyclin D3 (Homo sapiens) (UniProt P11802+P30281); experiment: Residual activity of CDK4/Cyclin D3 at 0.1 uM by microplate scintillation counting; format: protein-complex assay
[5] = biological target: Insulin receptor (Homo sapiens) (UniProt P06213); experiment: Residual activity of INSR at 0.1 uM by microplate scintillation counting
Sequence of Insulin receptor (Homo sapiens) (P06213 28-758 limits assumed): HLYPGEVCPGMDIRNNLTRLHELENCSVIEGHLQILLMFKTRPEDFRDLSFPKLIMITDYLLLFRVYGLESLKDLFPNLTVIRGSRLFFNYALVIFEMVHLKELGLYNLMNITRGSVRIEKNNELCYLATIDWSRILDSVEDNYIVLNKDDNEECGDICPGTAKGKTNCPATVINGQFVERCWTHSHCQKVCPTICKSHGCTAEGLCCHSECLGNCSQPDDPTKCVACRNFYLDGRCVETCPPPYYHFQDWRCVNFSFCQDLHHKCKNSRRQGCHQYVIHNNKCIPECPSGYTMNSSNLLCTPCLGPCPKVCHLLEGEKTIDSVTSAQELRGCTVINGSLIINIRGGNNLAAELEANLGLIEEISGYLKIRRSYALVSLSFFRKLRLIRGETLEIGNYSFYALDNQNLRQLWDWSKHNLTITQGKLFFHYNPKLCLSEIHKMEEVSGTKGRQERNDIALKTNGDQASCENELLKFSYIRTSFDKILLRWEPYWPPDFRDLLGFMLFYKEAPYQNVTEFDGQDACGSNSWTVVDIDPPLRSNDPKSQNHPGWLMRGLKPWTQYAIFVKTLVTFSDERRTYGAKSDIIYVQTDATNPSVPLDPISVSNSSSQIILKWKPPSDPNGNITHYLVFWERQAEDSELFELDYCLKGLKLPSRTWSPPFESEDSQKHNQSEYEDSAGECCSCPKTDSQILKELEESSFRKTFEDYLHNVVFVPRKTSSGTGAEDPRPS
Sequence of Insulin receptor (Homo sapiens) (P06213 763-1382 limits assumed): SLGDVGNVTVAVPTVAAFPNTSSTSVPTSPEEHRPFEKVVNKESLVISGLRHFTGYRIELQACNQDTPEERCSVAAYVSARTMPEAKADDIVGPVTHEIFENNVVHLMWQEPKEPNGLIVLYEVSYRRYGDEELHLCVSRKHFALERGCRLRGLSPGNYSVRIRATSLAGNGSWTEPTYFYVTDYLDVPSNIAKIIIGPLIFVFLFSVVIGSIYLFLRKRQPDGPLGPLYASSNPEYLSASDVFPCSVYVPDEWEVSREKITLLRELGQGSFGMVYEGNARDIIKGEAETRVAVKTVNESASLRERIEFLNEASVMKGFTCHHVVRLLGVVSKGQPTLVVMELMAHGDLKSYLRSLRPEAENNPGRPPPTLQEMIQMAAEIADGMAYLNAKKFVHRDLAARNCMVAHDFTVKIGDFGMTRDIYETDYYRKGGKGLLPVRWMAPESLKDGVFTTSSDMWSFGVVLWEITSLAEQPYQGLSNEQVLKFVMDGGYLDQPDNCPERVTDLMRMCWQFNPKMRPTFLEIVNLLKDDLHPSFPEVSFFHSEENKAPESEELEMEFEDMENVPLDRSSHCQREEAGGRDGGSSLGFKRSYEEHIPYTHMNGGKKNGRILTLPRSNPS

[6] = biological target: Fibroblast growth factor receptor 1 (Homo sapiens) (UniProt P11362); experiment: Residual activity of wild type FGF-R1 at 0.1 uM by microplate scintillation counting
Sequence of Fibroblast growth factor receptor 1 (Homo sapiens) (P11362 22-822 limits assumed): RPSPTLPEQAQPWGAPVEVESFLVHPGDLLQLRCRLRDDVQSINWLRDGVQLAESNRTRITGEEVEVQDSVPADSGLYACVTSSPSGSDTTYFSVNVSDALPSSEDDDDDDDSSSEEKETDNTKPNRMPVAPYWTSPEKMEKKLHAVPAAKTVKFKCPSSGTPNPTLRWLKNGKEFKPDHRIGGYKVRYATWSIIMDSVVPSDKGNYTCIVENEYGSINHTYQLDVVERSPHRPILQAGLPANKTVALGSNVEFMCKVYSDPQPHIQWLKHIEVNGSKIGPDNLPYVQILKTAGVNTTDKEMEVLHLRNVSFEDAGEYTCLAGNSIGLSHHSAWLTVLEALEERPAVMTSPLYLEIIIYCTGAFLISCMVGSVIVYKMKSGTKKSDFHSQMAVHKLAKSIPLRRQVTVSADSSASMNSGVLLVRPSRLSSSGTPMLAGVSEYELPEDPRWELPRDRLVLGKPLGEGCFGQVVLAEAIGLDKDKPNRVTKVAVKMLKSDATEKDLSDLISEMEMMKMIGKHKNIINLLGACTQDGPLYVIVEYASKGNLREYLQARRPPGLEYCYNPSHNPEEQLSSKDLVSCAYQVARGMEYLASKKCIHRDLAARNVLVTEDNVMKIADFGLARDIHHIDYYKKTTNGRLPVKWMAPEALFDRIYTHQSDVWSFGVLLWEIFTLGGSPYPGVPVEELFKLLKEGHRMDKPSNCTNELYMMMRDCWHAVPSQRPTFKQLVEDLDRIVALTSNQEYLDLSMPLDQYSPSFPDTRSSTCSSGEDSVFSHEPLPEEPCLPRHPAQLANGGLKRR

[7] = biological target: T2, Ephrin type-B receptor 3 (Homo sapiens) (UniProt P54753); experiment: Residual activity of EPHB3 at 10 uM by microplate scintillation counting
T2 sequence (whole entry): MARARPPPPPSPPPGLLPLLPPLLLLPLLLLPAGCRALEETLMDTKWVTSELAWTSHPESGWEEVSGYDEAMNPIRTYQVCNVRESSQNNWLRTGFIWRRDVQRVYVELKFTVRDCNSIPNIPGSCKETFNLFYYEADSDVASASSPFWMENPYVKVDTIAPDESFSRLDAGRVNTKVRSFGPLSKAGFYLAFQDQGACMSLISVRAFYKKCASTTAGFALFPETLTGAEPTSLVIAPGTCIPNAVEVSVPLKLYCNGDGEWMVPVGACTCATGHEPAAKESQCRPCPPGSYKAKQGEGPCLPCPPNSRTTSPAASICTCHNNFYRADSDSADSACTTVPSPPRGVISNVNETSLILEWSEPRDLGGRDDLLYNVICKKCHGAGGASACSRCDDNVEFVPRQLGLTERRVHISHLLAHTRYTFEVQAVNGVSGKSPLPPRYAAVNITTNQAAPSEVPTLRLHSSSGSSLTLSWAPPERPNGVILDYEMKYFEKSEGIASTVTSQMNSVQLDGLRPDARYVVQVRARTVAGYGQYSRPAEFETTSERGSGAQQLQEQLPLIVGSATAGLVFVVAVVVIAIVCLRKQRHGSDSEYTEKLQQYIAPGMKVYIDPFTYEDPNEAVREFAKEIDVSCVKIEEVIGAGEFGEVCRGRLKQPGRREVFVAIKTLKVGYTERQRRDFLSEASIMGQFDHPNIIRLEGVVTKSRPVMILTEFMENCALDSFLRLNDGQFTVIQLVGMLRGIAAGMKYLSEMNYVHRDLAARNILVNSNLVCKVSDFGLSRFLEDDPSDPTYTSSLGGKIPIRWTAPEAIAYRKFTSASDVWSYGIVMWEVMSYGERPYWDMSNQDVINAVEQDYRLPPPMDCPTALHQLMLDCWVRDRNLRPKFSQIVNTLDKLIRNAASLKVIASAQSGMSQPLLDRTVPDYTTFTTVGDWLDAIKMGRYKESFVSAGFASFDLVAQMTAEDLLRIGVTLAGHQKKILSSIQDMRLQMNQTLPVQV

[8] = biological target: Serine/threonine-protein kinase B-raf (Homo sapiens) (UniProt P15056); experiment: Residual activity of Wild type B-RAF at 10 uM by microplate scintillation counting
[9] = biological target: T3, Serine/threonine-protein kinase NLK (Homo sapiens) (UniProt Q9UBE8); experiment: Residual activity of NLK at 10 uM by microplate scintillation counting
T3 sequence (whole entry): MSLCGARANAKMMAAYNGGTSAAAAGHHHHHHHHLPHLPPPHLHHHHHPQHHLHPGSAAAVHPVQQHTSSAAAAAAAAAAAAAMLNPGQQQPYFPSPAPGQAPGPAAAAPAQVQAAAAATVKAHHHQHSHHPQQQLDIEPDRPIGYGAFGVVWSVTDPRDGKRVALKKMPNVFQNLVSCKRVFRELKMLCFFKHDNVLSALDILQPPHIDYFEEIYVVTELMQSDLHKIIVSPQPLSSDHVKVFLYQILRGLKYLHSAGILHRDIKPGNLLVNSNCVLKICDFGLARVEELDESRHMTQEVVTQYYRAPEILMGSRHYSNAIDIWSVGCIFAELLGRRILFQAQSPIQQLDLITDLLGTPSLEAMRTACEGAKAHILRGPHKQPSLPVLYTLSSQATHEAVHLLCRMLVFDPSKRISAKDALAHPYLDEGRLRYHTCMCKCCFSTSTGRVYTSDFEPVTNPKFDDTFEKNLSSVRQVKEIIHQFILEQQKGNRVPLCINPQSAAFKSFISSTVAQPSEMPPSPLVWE

Sequence of Serine/threonine-protein kinase WNK3 (Homo sapiens) (Q9BYP7 whole entry): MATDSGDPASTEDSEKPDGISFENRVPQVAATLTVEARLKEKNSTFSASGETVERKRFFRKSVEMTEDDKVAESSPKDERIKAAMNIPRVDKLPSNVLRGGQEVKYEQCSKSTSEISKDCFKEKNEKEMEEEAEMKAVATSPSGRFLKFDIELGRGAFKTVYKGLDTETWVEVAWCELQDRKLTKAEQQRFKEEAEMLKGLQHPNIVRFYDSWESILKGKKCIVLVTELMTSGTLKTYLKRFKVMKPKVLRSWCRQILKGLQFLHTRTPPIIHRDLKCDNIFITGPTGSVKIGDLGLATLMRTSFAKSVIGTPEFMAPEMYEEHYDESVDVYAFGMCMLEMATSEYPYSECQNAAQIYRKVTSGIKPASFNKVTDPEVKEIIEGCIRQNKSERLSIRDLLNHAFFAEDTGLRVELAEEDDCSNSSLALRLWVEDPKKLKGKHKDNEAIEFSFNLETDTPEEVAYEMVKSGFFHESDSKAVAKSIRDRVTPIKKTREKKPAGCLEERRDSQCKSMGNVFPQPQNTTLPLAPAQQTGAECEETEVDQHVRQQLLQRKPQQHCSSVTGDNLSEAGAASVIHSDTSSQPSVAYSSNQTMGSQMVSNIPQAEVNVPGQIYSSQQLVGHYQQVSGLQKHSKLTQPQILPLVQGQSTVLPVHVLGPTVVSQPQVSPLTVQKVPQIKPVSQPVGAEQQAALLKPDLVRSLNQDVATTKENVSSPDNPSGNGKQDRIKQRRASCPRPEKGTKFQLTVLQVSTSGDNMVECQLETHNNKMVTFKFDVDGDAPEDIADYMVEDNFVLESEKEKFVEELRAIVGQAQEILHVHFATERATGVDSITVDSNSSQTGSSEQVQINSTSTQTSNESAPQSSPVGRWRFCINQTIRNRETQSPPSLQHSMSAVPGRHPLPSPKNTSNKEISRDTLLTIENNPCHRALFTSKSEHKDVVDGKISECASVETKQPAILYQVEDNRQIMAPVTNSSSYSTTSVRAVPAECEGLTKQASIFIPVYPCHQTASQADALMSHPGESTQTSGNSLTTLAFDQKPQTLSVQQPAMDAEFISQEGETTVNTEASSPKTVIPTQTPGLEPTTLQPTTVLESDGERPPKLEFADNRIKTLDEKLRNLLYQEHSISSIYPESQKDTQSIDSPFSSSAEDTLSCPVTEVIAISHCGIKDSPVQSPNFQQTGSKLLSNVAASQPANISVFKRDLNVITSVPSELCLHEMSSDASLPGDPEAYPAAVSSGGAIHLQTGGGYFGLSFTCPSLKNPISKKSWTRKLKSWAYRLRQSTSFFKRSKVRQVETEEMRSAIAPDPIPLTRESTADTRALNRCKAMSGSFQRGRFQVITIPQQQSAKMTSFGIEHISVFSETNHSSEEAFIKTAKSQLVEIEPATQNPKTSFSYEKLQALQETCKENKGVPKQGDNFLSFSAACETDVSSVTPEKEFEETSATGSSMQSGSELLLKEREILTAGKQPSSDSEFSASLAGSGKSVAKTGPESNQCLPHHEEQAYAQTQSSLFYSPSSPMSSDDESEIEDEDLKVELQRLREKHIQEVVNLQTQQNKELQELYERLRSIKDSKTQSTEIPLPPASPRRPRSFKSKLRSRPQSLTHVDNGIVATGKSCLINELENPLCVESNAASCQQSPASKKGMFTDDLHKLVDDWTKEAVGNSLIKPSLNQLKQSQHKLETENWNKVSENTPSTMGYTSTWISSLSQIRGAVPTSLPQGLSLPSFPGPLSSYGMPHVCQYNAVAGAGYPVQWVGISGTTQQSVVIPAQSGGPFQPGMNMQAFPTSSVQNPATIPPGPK

Structure (SMILES)	residual activity [1] [%]	residual activity [2] [%]	residual activity [3] [%]	residual activity [4] [%]	residual activity [5] [%]	residual activity [6] [%]	residual activity [7] [%]	residual activity [8] [%]	residual activity [9] [%]
COc1cc2c(Oc3ccc(-c4nc5ccccc5s4)cc3F)ncnc2cc1OCCCN1CCN(C)CC1	39	87	139	82	96	95	105	74	114
COc1cc2c(Oc3ccc(-c4nc5ccccc5s4)cc3)ncnc2cc1OCCCN1CCCC1	21	108	109	80	96	101	227	51	90
COc1cc2c(Oc3ccc(-c4nc5ccccc5s4)cc3)ncnc2cc1OCCCN1CCN(C)CC1	23	108	127	98	100	103	372	70	113
